In PubChem BioAssay (NCI):
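Cells were grown in 96-well plates and exposed to each compound for 48 hours at five concentrations; endpoints were interpolated linearly between bracketing concentrations, or set to the highest concentration if not reached. GI50 = concentration required for 50% inhibition of growth. TGI is the concentration that stops growth completely.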

Columns and labels:
Assay in all cases: DTP human tumour cell line panel, 48 h
[1] = system: HCC-2998 colon
[2] = system: CCRF-CEM leukemia
[3] = system: SW-620 colon
[4] = system: OVCAR-5 ovarian
[5] = system: MDA-MB-468 breast
[6] = system: 786-0 renal
[7] = system: UO-31 renal
[8] = system: SF-295 CNS
[9] = system: HOP-62 NSCLC
[10] = system: SF-539 CNS
[11] = system: HCT-15 colon
[12] = system: SK-MEL-5 melanoma
[13] = system: T-47D breast
[14] = system: HS 578T breast
[15] = system: SNB-19 CNS
[16] = system: ACHN renal
[17] = system: DU-145 prostate
[18] = system: HCT-116 colon
[19] = system: SF-268 CNS
[20] = system: SN12C renal
[21] = system: OVCAR-8 ovarian
[22] = system: M14 melanoma
[23] = system: SR leukemia
[24] = system: A498 renal
[25] = system: TK-10 renal
[26] = system: OVCAR-4 ovarian
[27] = system: K-562 leukemia
[28] = system: RPMI-8226 leukemia
[29] = system: HL-60(TB) leukemia
[30] = system: NCI-H460 lung
[31] = system: MDA-MB-435
[32] = system: NCI-H522 lung
[33] = system: RXF 393 renal
[34] = system: UACC-62 melanoma
[35] = system: SNB-75 CNS
[36] = system: SK-MEL-2 melanoma
[37] = system: NCI-H226 lung
[38] = system: UACC-257 melanoma
[39] = system: MDA-MB-231 breast
[40] = system: CAKI-1 renal
[41] = system: HT29 colon
[42] = system: SK-MEL-28 melanoma
[43] = system: MCF7 breast
[44] = system: A549 NSCLC
[45] = system: U251 CNS
[46] = system: MALME-3M melanoma
[47] = system: LOX IMVI melanoma
[48] = system: SK-OV-3 ovarian
[49] = system: IGROV1 ovarian
[50] = system: MOLT-4 leukemia
[51] = system: EKVX NSCLC
[52] = system: NCI/ADR-RES ovarian
[53] = system: BT-549 breast
[54] = system: OVCAR-3 ovarian
[55] = system: KM12 colon
[56] = system: PC-3 prostate
[57] = system: NCI-H23 lung
[58] = system: HOP-92 NSCLC
[59] = system: COLO 205 colon

## COc1ccc(Cc2nn(CC(=O)N/N=C/c3ccc(Br)cc3)c(=O)c3c(C)noc23)cc1
[1]
  GI50: 34.5 µM
  TGI: > 100 µM
[2]
  GI50: 7.87 µM
  TGI: > 100 µM
[3]
  GI50: 3.07 µM
  TGI: > 100 µM
[4]
  GI50: 16.8 µM
  TGI: > 100 µM
[5]
  GI50: 7.58 µM
  TGI: 27.4 µM
[6]
  GI50: 1.48 µM
  TGI: 6.94 µM
[7]
  GI50: 2.98 µM
  TGI: 15.3 µM
[8]
  GI50: 10.3 µM
  TGI: 23.4 µM
[9]
  GI50: 10.6 µM
  TGI: 26.4 µM
[10]
  GI50: 11.9 µM
  TGI: 25.4 µM
[11]
  GI50: 12.3 µM
  TGI: > 100 µM
[12]
  GI50: > 100 µM
  TGI: > 100 µM
[13]
  GI50: 0.97 µM
  TGI: 9.48 µM
[14]
  GI50: 3.61 µM
  TGI: 61.2 µM
[15]
  GI50: 14.6 µM
  TGI: 33.1 µM
[16]
  GI50: 2.65 µM
  TGI: 11.2 µM
[17]
  GI50: 16.1 µM
  TGI: > 100 µM
[18]
  GI50: 0.81 µM
  TGI: 10.3 µM
[19]
  GI50: 14.8 µM
  TGI: 52.6 µM
[20]
  GI50: 1.63 µM
  TGI: 11.5 µM
[21]
  GI50: 17.4 µM
  TGI: > 100 µM
[22]
  GI50: 18.5 µM
  TGI: > 100 µM
[23]
  GI50: 14.6 µM
  TGI: > 100 µM
[24]
  GI50: 3.01 µM
  TGI: 8.8 µM
[25]
  GI50: 10.1 µM
  TGI: 23.9 µM
[26]
  GI50: 0.511 µM
  TGI: 2.12 µM
[27]
  GI50: 14.8 µM
  TGI: > 100 µM
[28]
  GI50: 69.9 µM
  TGI: > 100 µM
[29]
  GI50: > 100 µM
  TGI: > 100 µM
[30]
  GI50: 1.56 µM
  TGI: 16.4 µM
[31]
  GI50: 30.5 µM
  TGI: > 100 µM
[32]
  GI50: 8.77 µM
  TGI: 41.6 µM
[33]
  GI50: 2.75 µM
  TGI: 11.4 µM
[34]
  GI50: 14.1 µM
  TGI: > 100 µM
[35]
  GI50: 0.287 µM
  TGI: 1.41 µM
[36]
  GI50: 16.4 µM
  TGI: 32.1 µM
[37]
  GI50: 2.52 µM
  TGI: 13.4 µM
[38]
  GI50: > 100 µM
  TGI: > 100 µM
[39]
  GI50: 5.73 µM
  TGI: 25.8 µM
[40]
  GI50: 5.21 µM
  TGI: 19.1 µM
[41]
  GI50: 5.05 µM
  TGI: > 100 µM
[42]
  GI50: 36.9 µM
  TGI: > 100 µM
[43]
  GI50: 3.44 µM
  TGI: > 100 µM
[44]
  GI50: 1.49 µM
  TGI: > 100 µM
[45]
  GI50: 2.03 µM
  TGI: 13.4 µM
[46]
  GI50: 5.48 µM
  TGI: 29.1 µM
[47]
  GI50: 3.54 µM
  TGI: 52.8 µM
[48]
  GI50: 5.55 µM
  TGI: 20.1 µM
[49]
  GI50: 12.4 µM
  TGI: 32.3 µM
[50]
  GI50: 7.82 µM
  TGI: > 100 µM
[51]
  GI50: 14.5 µM
  TGI: 83.1 µM
[52]
  GI50: 4.6 µM
  TGI: > 100 µM
[53]
  GI50: 18.2 µM
  TGI: 58 µM
[54]
  GI50: 2.27 µM
  TGI: 10.9 µM
[55]
  GI50: > 100 µM
  TGI: > 100 µM
[56]
  GI50: 10.4 µM
  TGI: > 100 µM
[57]
  GI50: 7.06 µM
  TGI: 22.8 µM
[58]
  GI50: 4.98 µM
  TGI: 21.2 µM
[59]
  GI50: > 100 µM
  TGI: > 100 µM

## COc1ccc(C(=O)/C=C/c2ccccc2Br)cc1S(N)(=O)=O
[1]
  GI50: 2.9 µM
  TGI: 12.4 µM
[2]
  GI50: 3.07 µM
  TGI: 11.1 µM
[3]
  GI50: 1.79 µM
  TGI: 4.04 µM
[4]
  GI50: 2.2 µM
  TGI: 5.99 µM
[5]
  GI50: 2.56 µM
  TGI: 13.2 µM
[6]
  GI50: 1.81 µM
  TGI: 3.66 µM
[7]
  GI50: 1.53 µM
  TGI: 3.05 µM
[8]
  GI50: 4.13 µM
  TGI: 16.1 µM
[9]
  GI50: 2.41 µM
  TGI: 7.39 µM
[10]
  GI50: 1.74 µM
  TGI: 3.21 µM
[11]
  GI50: 1.65 µM
  TGI: 3.45 µM
[12]
  GI50: 7.78 µM
  TGI: 20.5 µM
[13]
  GI50: 3.57 µM
  TGI: 15.8 µM
[14]
  GI50: 8.91 µM
  TGI: 72 µM
[15]
  GI50: 4.26 µM
  TGI: 16 µM
[16]
  GI50: 1.84 µM
  TGI: 3.56 µM
[17]
  GI50: 3.35 µM
  TGI: 11.4 µM
[18]
  GI50: 1.52 µM
  TGI: 3.02 µM
[19]
  GI50: 3.66 µM
  TGI: 14.6 µM
[20]
  GI50: 1.86 µM
  TGI: 4.15 µM
[21]
  GI50: 2.62 µM
  TGI: 8.33 µM
[22]
  GI50: 6.83 µM
  TGI: 21.3 µM
[23]
  GI50: 1.48 µM
  TGI: 4.43 µM
[24]
  GI50: 11.4 µM
  TGI: 24.1 µM
[25]
  GI50: 3.29 µM
  TGI: 11.9 µM
[26]
  GI50: 3.25 µM
  TGI: 13.1 µM
[27]
  GI50: 1.85 µM
  TGI: 5.09 µM
[28]
  GI50: 2.3 µM
  TGI: 6.84 µM
[29]
  GI50: 2.64 µM
  TGI: 17.2 µM
[30]
  GI50: 1.94 µM
  TGI: 4.58 µM
[31]
  GI50: 7.18 µM
  TGI: 20.1 µM
[32]
  GI50: 1.77 µM
  TGI: 4.12 µM
[33]
  GI50: 1.91 µM
  TGI: 4.38 µM
[34]
  GI50: 3.64 µM
  TGI: 15.3 µM
[36]
  GI50: 14.4 µM
  TGI: 28.1 µM
[37]
  GI50: 2.47 µM
  TGI: 6.96 µM
[38]
  GI50: 11.9 µM
  TGI: 24.5 µM
[39]
  GI50: 2.09 µM
  TGI: 4.69 µM
[40]
  GI50: 4.24 µM
  TGI: 16.2 µM
[41]
  GI50: 2.27 µM
  TGI: 4.9 µM
[42]
  GI50: 8.3 µM
  TGI: 20.5 µM
[43]
  GI50: 2.89 µM
  TGI: 11.3 µM
[44]
  GI50: 2.67 µM
  TGI: 8.9 µM
[45]
  GI50: 1.49 µM
  TGI: 2.82 µM
[46]
  GI50: 10.8 µM
  TGI: 22.7 µM
[47]
  GI50: 1.65 µM
  TGI: 3.02 µM
[48]
  GI50: 12.9 µM
  TGI: 26 µM
[49]
  GI50: 2.76 µM
  TGI: 10 µM
[50]
  GI50: 1.93 µM
  TGI: 5 µM
[51]
  GI50: 9.86 µM
  TGI: 21.8 µM
[52]
  GI50: 2.28 µM
  TGI: 5.67 µM
[53]
  GI50: 4.56 µM
  TGI: 16.8 µM
[54]
  GI50: 2.09 µM
  TGI: 4.73 µM
[55]
  GI50: 1.87 µM
  TGI: 4.01 µM
[56]
  GI50: 4.28 µM
  TGI: 16.9 µM
[57]
  GI50: 3.22 µM
  TGI: 12.7 µM
[58]
  GI50: 3.29 µM
  TGI: 16 µM
[59]
  GI50: 2.21 µM
  TGI: 4.49 µM
